Consider six compounds from PMC8245078, “Development of novel benzofuran-isatin conjugates as potential antiproliferative agents with apoptosis inducing mechanism in Colon cancer” (Journal of Enzyme Inhibition and Medicinal Chemistry, 2021).

Like-named read-outs stand apart in the source and are kept apart here.

Broadly, the inhibition is the drop in the measured response relative to a control, in per cent. What is called IC50 is the concentration needed to halve the response being measured. High values mean weaker potency in that assay, low ones greater potency in that assay.

The test system of series [1] is RPMI-8226. In words: NCI single dose screening (10 µM). The settings on record: Homo sapiens. It is filed as cell-based.
Series [2] has as its system HT-29 colorectal cancer cell line. Put plainly: MTT cell viability assay. Type of series: cell-based, human. The conditions noted are these: for inhibition of HT-29 cancer cells viability: 10 µM, 24 h, MTT. As for the experimental part: In the present investigation a new set of benzofuran–isatin hybrids (5a–e and 7a–i) was synthesised to be evaluated for their potential anticancer activity towards two human colorectal cancer cell lines, SW-620 and HT-29. […] Both, SW-620 and HT-29 cells were treated with 10 µM of each compound for 24 h and the percent cell viability was calculated using MTT assay.
For this reason, compounds 5a and 5d were pursued for further studies. Starting with determination of IC50s and cytotoxic selectivity studies. Serial concentrations of compounds 5a and 5d were used to examine their impact on cell viability using MTT protocol. Results of concentration vs percent viability were charted, and the IC50 was calculated for SW-620 and HT-29 cell lines using Graph Pad prism 8 (Figure 4). […]
[(Ti-Tz)/Tz] x 100 for concentrations for which Ti<Tz […]
SW620 and HT29 colorectal cancer cell lines and HFF-1 fibroblast (ATCC, Rockville, USA) were used. HT29 cells were cultured and maintained in Dulbecco’s Modified Eagles Medium (DMEM) (GIBCO, by Thermo Fischer Scientific, NY, USA) supplemented with 10% fetal bovine serum (FBS), 100 units/mL penicillin, and 100 μg streptomycin. SW620 and HFF-1 cells were cultured in Roswell Park Memorial Institute medium (RPMI-1640) (GIBCO, by Thermo scientific, NY, USA) supplemented with 10% FBS and 1% penicillin and streptomycin (Napolitano et al., 2015). All cultures were incubated at 37 °C and humidified atmosphere of 5% […]
2.3. Cell Viability Assay
The cytotoxicity effect of compounds on the colorectal cancer cell lines, SW620 and HT29 in addition to the normal human fibroblasts was measured by MTT (3-(4, 5-dimethylthiazol-2-yl)-2,5-diphenyltetrazolium bromide) (Sigma-Aldrich, St. Louis, MO, USA) as previously described. Briefly, cells were seeded in 96 well culture plates at 5000/well for HT29 and 10,000/well for SW620 for 24 h. Cells were then incubated with different compounds from WAG1 series (1-15) 24h at 37 °C and humidified 5% CO2 incubator. Freshly prepared 10 μl of 3-(4,5-dimethylthiazol-2-yl)-2,5-diphenyltetrazolium bromide (MTT 5 mM) solution were added to the cells and further incubated for 2 h. Thereafter, 100 μl of dimethyl sulfoxide (DMSO) were added in each well and the crystals were dissolved through careful pipetting. […]
VA, USA). The experiments were performed in triplicate for each condition. […]
The total protein concentration was evaluated by the colorimetric
Bradford protein assay (BIO-RAD inc, CA, USA) at 595 nm absorbance. Lysates were loaded in […]
For orientation: Tetrazolium dyes change colour on reduction, which living cells bring about.

The test system of series [3] is human skin fibroblast (HFF-1) normal cells. Put plainly: MTT cell viability assay on normal cells. Type of series: cell-based. The settings on record: HFF-1, incubation for 24 h. As for the experimental part:
Furthermore, selective cytotoxicity of compounds 5a and 5d was studied on human skin fibroblast (HFF-1) normal cells. […]
each well, and plates were incubated for 10 minutes at room temperature. After staining, unbound dye was removed by washing five times with 1 % acetic acid and the plates were air dried. Bound stain was subsequently solubilized with 10 mM trizma base, and the absorbance was read on an automated plate reader at a wavelength of 515 nm. For suspension cells, the methodology was the same except that the assay was terminated by fixing settled cells at the bottom of the wells by gently adding 50 μL of 80 % TCA (final concentration, 16 % TCA).
Using the seven absorbance measurements [time zero, (Tz), control growth, (C), and test growth in the presence of drug at the five concentration levels (Ti)], the percentage growth was calculated at each of the drug concentrations levels. Percentage growth inhibition was calculated […]
Three dose response parameters were calculated for each experimental agent. […] The drug concentration resulting in total growth inhibition (TGI) was calculated from Ti = Tz. […]
The cytotoxicity effect of compounds on the colorectal cancer cell lines, SW620 and HT29 in addition to the normal human fibroblasts was measured by MTT (3-(4, 5-dimethylthiazol-2-yl)-2,5-diphenyltetrazolium bromide) (Sigma-Aldrich, St. Louis, MO, USA) as previously described. […]

[4] abbreviates: Homo sapiens, HT-29, HT-29, MTT.
The mark [5] stands for this setting: RPMI-8226, Leukaemia, single dose 10^−5 M, read-out: GI% (cell growth inhibition percentage).

As to `Cc1c(C(=O)N/N=C2\C(=O)N(Cc3ccccc3)c3ccccc32)oc2ccccc12` [Compound 7d], the inhibition at 10 µM in series [1] (RPMI-8226, read-out: GI% (cell growth inhibition percentage)) is less than 10%.
Turning to `Cc1c(C(=O)N/N=C2\C(=O)Nc3ccccc32)oc2ccccc12` [Compound 5a], the “inhibition of HT-29 cancer cells viability” value in series [2] is listed as greater than 50%. In addition, the IC50 worked out at 8.7 µM in series [2] (HT-29, MTT) and 9.4 µM in series [2] (setting [4]). Besides, the “effect on fibroblast normal cell viability” value in series [3] was “little effect”.
For `Cc1c(C(=O)N/N=C2\C(=O)Nc3ccc(F)cc32)oc2ccccc12` [Compound 5b], the inhibition at 10 µM in series [1] (setting [5]) was less than 10%.
As to `CCCN1C(=O)/C(=N\NC(=O)c2oc3ccccc3c2C)c2ccccc21` [Compound 7b], the “inhibition of HT-29 cancer cells viability” value in series [2] is on record as greater than 50%.
`Cc1c(C(=O)N/N=C2\C(=O)Nc3ccc(Br)cc32)oc2ccccc12` [Compound 5c]: the inhibition at 10 µM in series [1] (setting [5]) is less than 10%.
As for `COc1ccc2c(c1)/C(=N/NC(=O)c1oc3ccccc3c1C)C(=O)N2` [Compound 5d], in series [2], the “inhibition of HT-29 cancer cells viability” value is greater than 50%. The IC50 in series [2] (HT-29, MTT) came out at 6.5 µM; in series [2] (setting [4]), 9.8 µM. For the same compound, in series [3], the “effect on fibroblast normal cell viability” value is “little effect”.
